In patent US9066922B2, “Pharmaceutical composition for the treatment or prevention of diseases involving obesity, diabetes, metabolic syndrome, neuro-degenerative diseases and mitochondria dysfunction diseases” (MD BIOALPHA CO., LTD., priority 2005, dated 2015):

How the values were obtained:
AMP kinase = assay: Phosphorylation of AMPK by β-lapachone in HepG2 cells; assay type: cell-based, Human; conditions: 10 μM, 30 min to 6 hr
Experimental: This example was carried out to confirm whether β-lapachone (Compound 1) has effects on phosphorylation of AMPK and ACC, which are intracellular energy-regulating proteins. In order to examine phosphorylation of AMP kinase and ACC (acetyl-CoA carboxylase) by β-lapachone, HepG2 cells (Human hepatocellular liver carcinoma cell line) were seeded onto a 6-well plate at a density of 1×10^5 cells per well, and cultured in a RPMI+10% FBS medium. After growing the cells for 24 hours, the culture medium was replaced with a serum-free RPMI medium, and cells were treated with β-lapachone (10 μM) for 30 min, 1 hr, 2 hr, 4 hr and 6 hr, respectively, in combination with a control (DMSO). Anti-ACC and Anti-pS79-ACC were used in order to observe phosphorylated ACC, whereas Anti-AMPK and Anti-pT172-AMPK were used in order to observe phosphorylated AMP kinase, respectively.

[1] = system: transcripts of Sirtuin (SIRT) genes; assay: Expression of SIRT-related transcripts in DIO mice; assay type: in vivo, C57BL/6 mice; conditions: 50 mg/kg daily oral, gonadal adipose tissues, days 7, 28 and 56
Experimental: β-lapachone was administered daily to diet-induced obesity (DIO) mice at a dose of 50 mg/kg via an oral route, and levels of transcripts of Sirtuin (SIRT) (36,37) genes in gonadal adipose tissues were measured on days 7, 28 and 56 of administration, respectively, using real-time quantitative PCR. Referring to SIRT-related transcripts shown in FIG. 12, there are known 7 species of transcripts in humans.

[2] = system: mRNAs for HK2, GLUT2 and GLUT4; assay: Gene expression of proteins involved in glucose metabolism in DIO mice; assay type: in vivo, C57BL/6 mice; conditions: 50 mg/kg daily oral, liver and gonadal adipose tissues, vs control group
Experimental: β-lapachone was administered daily to diet-induced obesity (DIO) mice at a dose of 50 mg/kg via an oral route, and levels of mRNAs for hexokinase 2 (HK2) (21,22), glucose transporter (GLUT) 2 and GLUT4 (18,19,20) in the liver and gonadal adipose tissues were confirmed by real-time quantitative PCR. GLUT is well-known as a protein that mediates intracellular uptake and expenditure of blood glucose in organs such as liver, adipocytes and myoblast cells, whereas HK2, an enzyme belonging to a glucokinase class, phosphorylates […] that are thus allowed to enter glycolytic pathways. […] Increased levels of GLUT2 and GLUT4 facilitate intracellular uptake of blood glucose, thus presenting the possibility of β-lapachone as an anti-diabetic drug.

DIO C57BL/6 mice [3] = assay: Physical endurance (swimming test) in DIO C57BL/6 mice; assay type: in vivo; conditions: single administration, 3 hours later, vs control group
Experimental: This Example was intended to measure difference in physical endurance of mice through a swimming test. For this purpose, water was placed in a cylindrical trough having a diameter of 9.5 cm and height of 25 cm, and β-lapachone was administered to DIO C57BL/6 mice. 3 hours later, a sample-administered group and a control group were placed simultaneously into each cylindrical trough for measurement, and physical endurance of each group was compared.

[4] = system: C57BL/6JL Lep ob/Lep ob mice; assay: Weight loss effects in obese mice (ob/ob): body weight; assay type: in vivo; conditions: 100 mg/kg for 26 days
Text: 10-week-old C57BL/6JL Lep ob/Lep ob male mice having obesity characteristics and predisposition were purchased from Daehan Biolink Co., Ltd. (Chungchongbuk-do, Korea). Animals were raised in a breeding room maintained at a temperature of 23 C, 55% humidity, illumination of 300 to 500 lux, a 12-h light/dark (L/D) cycle, and ventilation of 10 to 18 times/hr. Animals were fed ad libitum pellets of Purina Rodent Laboratory Chow 5001 (purchased from Purina Mills Inc., St. Louis, Mo., USA) as a solid feed for experimental animals and tap water as drinking water. Mice were allowed to acclimate to new environment of the breeding room for two weeks and were then administered some pyrano-o-naphthoquinone and furano-o-naphthoquinone derivatives synthesized according to the present invention at doses of 100 mg/kg for 26 days. Observation was made on changes in body weight, blood glucose and dietary intake, with respect to a time course of administration. After administration was complete, Computed Tomography (CT) was performed to confirm changes in adipose tissue distribution of animals, changes in fat distribution of tissues in various organs, changes in sizes of adipocytes, and changes in glucose, lipid and enzyme levels in blood and liver.

Sprague-Dawley rats = assay: Acute toxicity test, oral administration; assay type: in vivo; conditions: oral, 50, 100 and 200 mg/kg, observed for 2 weeks
DIO C57BL/6 mice [5] = assay: Respiratory Quotient (RQ), indirect calorimeter; assay type: in vivo; conditions: measured for 7 hours, vs vehicle-administered group and control group
Experimental: FIG. 24 is a graph showing effects of β-lapachone on Respiratory Quotient (RQ) after administration of β-lapachone to DIO C57BL/6 mice.
This Example was intended to examine effects of β-lapachone on fat metabolism via measurement of Respiratory Quotient (RQ). Oxygen consumption and carbon dioxide production were measured using an Oxyscan open-circuit indirect calorimeter (AccuScan Instruments, Columbus, Ohio). This apparatus consisted of enclosed acrylic chambers (21×21×21 cm). Fresh air was drawn into each chamber at a rate of 1500 ml/min and then O2 and CO2 were allowed to pass through detectors. The concentrations of the gases were recorded in ml/kg body weight/min. RQ was calculated as the volume of CO2 produced (VCO2) divided by the volume of O2 consumed (VO2). A β-lapachone-administered group, a vehicle-administered group and a control group were placed in each apparatus, and RQ was measured for 7 hours. For acclimation of animal to new environment, mice were placed in the apparatus 2 hours prior to measurement.

CC1(C)CCC2=C(O1)c1ccccc1C(=O)C2=O [Compound 1, β-Lapachone]
phosphorylation of AMP kinase (Anti-pT172-AMPK), onset (AMP kinase): could be observed from the initial time (30 min) | phosphorylation of AMP kinase, duration of effect (AMP kinase): lasted up to 6 hours | SIRT2 transcript level [1]: did not exhibit any noticeable difference | SIRT3 transcript level [1]: significantly increased | SIRT5 transcript level [1]: did not exhibit any noticeable difference | SIRT6 transcript level [1]: significantly increased | SIRT7 transcript level [1]: did not exhibit any noticeable difference | SITR1 transcript level [1]: significantly increased | GLUT2 mRNA expression [2]: significant increases | GLUT4 mRNA expression [2]: significant increases | HK2 mRNA level [2]: decreased | swimming duration (DIO C57BL/6 mice [3]): more than two-fold swimming duration | Final BW [4]: 46.5 g | change in vivo at 100 mg/kg ([4]; Mus musculus, 624 h, read-out: Increase in BW): -16.8% | mortality (Sprague-Dawley rats): none of the animals died | Respiratory Quotient (RQ) (DIO C57BL/6 mice [5]): significant difference in a RQ value
